Test results as given in ChEMBL document CHEMBL2029281, “An improved microwave assisted one-pot synthesis, and biological investigations of some novel aryldiazenyl chromeno fused pyrrolidines” (2012).
Converted amounts (≈) assume the structure as drawn.

Assays:
Streptococcus pneumoniae = assay: Antibacterial activity against Streptococcus pneumoniae MTCC 1936 by macrobroth dilution assay; type: functional
Escherichia coli = assay: Antibacterial activity against Escherichia coli MTCC 443 by macrobroth dilution assay; type: functional
Bacillus subtilis = assay: Antibacterial activity against Bacillus subtilis MTCC 441 by macrobroth dilution assay; type: functional
Clostridium tetani = assay: Antibacterial activity against Clostridium tetani MTCC 449 by macrobroth dilution assay; type: functional
Salmonella typhi = assay: Antibacterial activity against Salmonella typhi MTCC 98 by macrobroth dilution assay; type: functional, Salmonella enterica subsp. enterica serovar Typhi; conditions: Salmonella enterica
Vibrio cholerae = assay: Antibacterial activity against Vibrio cholerae MTCC 3906 by macrobroth dilution assay; type: functional
Aspergillus fumigatus = assay: Antifungal activity against Aspergillus fumigatus MTCC 3008 by macrobroth dilution assay; type: functional
Candida albicans = assay: Antifungal activity against Candida albicans MTCC 227 by macrobroth dilution assay; type: functional
[1] = tested on: Mycobacterium tuberculosis; assay: Growth inhibition of Mycobacterium tuberculosis H37Rv at 250 ug/mL; type: functional; conditions: read-out: GI
[2] = tested on: Mycobacterium tuberculosis; assay: Growth inhibition of Mycobacterium tuberculosis H37Rv at >[…]; type: functional
[3] = tested on: Mycobacterium tuberculosis; assay: Growth inhibition of Mycobacterium tuberculosis H37Rv at 0.2 ug/mL; type: functional; conditions: read-out: GI

## CCn1cc(C(=O)O)c(=O)c2cc(F)c(N3CCNCC3)cc21 [NORFLOXACIN]
Streptococcus pneumoniae
  MIC: 10 µg/mL (≈ 31.3 µM)
Escherichia coli
  MIC: 10 µg/mL (≈ 31.3 µM)
Bacillus subtilis
  MIC: 100 µg/mL (≈ 313 µM)
Clostridium tetani
  MIC: 50 µg/mL (≈ 157 µM)
Salmonella typhi
  MIC: 10 µg/mL (≈ 31.3 µM)
Vibrio cholerae
  MIC: 10 µg/mL (≈ 31.3 µM)

## COC1=CC(=O)C[C@@H](C)[C@]12Oc1c(Cl)c(OC)cc(OC)c1C2=O [GRISEOFULVIN]
Aspergillus fumigatus
  MIC: 100 µg/mL (≈ 283 µM)
Candida albicans
  MIC: 500 µg/mL (≈ 1420 µM)

## CCOC(=O)[C@H]1C[C@@H]2COc3ccc(/N=N/c4ccccc4)cc3[C@@H]2N1CC
Aspergillus fumigatus
  MIC: 250 µg/mL (≈ 659 µM)
Streptococcus pneumoniae
  MIC: 100 µg/mL (≈ 264 µM)
Candida albicans
  MIC: > 250 µg/mL
Escherichia coli
  MIC: > 250 µg/mL
Bacillus subtilis
  MIC: > 250 µg/mL
Clostridium tetani
  MIC: 250 µg/mL (≈ 659 µM)
Salmonella typhi
  MIC: 250 µg/mL (≈ 659 µM)
[1]
  inhibition of growth at 250 µg/mL: 98%
Vibrio cholerae
  MIC: 250 µg/mL (≈ 659 µM)

## CCOC(=O)[C@H]1C[C@@H]2COc3ccc(/N=N/c4ccccc4)cc3[C@@H]2N1C
Aspergillus fumigatus
  MIC: > 250 µg/mL
Streptococcus pneumoniae
  MIC: 250 µg/mL (≈ 684 µM)
Candida albicans
  MIC: > 250 µg/mL
Escherichia coli
  MIC: 50 µg/mL (≈ 137 µM)
Bacillus subtilis
  MIC: > 250 µg/mL
Clostridium tetani
  MIC: 200 µg/mL (≈ 547 µM)
Salmonella typhi
  MIC: 50 µg/mL (≈ 137 µM)
[1]
  inhibition of growth at 250 µg/mL: 64%
Vibrio cholerae
  MIC: 125 µg/mL (≈ 342 µM)

## CCCCOC(=O)[C@H]1C[C@@H]2COc3ccc(/N=N/c4ccccc4)cc3[C@@H]2N1Cc1ccccc1
Aspergillus fumigatus
  MIC: > 250 µg/mL
Streptococcus pneumoniae
  MIC: 25 µg/mL (≈ 53.2 µM)
Candida albicans
  MIC: > 250 µg/mL
Escherichia coli
  MIC: 200 µg/mL (≈ 426 µM)
Bacillus subtilis
  MIC: 250 µg/mL (≈ 532 µM)
Clostridium tetani
  MIC: > 250 µg/mL
Salmonella typhi
  MIC: 100 µg/mL (≈ 213 µM)
[1]
  inhibition of growth at 250 µg/mL: 90%
Vibrio cholerae
  MIC: 250 µg/mL (≈ 532 µM)

## CCCCOC(=O)[C@H]1C[C@@H]2COc3ccc(/N=N/c4ccccc4)cc3[C@@H]2N1C
Aspergillus fumigatus
  MIC: > 250 µg/mL
Streptococcus pneumoniae
  MIC: 250 µg/mL (≈ 635 µM)
Candida albicans
  MIC: > 250 µg/mL
Escherichia coli
  MIC: 250 µg/mL (≈ 635 µM)
Bacillus subtilis
  MIC: 50 µg/mL (≈ 127 µM)
Clostridium tetani
  MIC: 100 µg/mL (≈ 254 µM)
Salmonella typhi
  MIC: 250 µg/mL (≈ 635 µM)
[1]
  inhibition of growth at 250 µg/mL: 25%
Vibrio cholerae
  MIC: 200 µg/mL (≈ 508 µM)

## Cc1ncc([N+](=O)[O-])n1CCO [METRONIDAZOLE]
[2]
  growth inhibition (GI): 99%

## CCCCOC(=O)[C@H]1C[C@@H]2COc3ccc(/N=N/c4ccccc4)cc3[C@@H]2N1CC
Aspergillus fumigatus
  MIC: > 250 µg/mL
Streptococcus pneumoniae
  MIC: > 250 µg/mL
Candida albicans
  MIC: 200 µg/mL (≈ 491 µM)
Escherichia coli
  MIC: 200 µg/mL (≈ 491 µM)
Bacillus subtilis
  MIC: 100 µg/mL (≈ 245 µM)
Clostridium tetani
  MIC: 250 µg/mL (≈ 613 µM)
Salmonella typhi
  MIC: 100 µg/mL (≈ 245 µM)
[1]
  inhibition of growth at 250 µg/mL: 68%
Vibrio cholerae
  MIC: > 250 µg/mL

## COC(=O)[C@H]1C[C@@H]2COc3ccc(/N=N/c4ccccc4)cc3[C@@H]2N1C
Aspergillus fumigatus
  MIC: > 250 µg/mL
Streptococcus pneumoniae
  MIC: 125 µg/mL (≈ 356 µM)
Candida albicans
  MIC: 250 µg/mL (≈ 711 µM)
Escherichia coli
  MIC: 200 µg/mL (≈ 569 µM)
Bacillus subtilis
  MIC: 125 µg/mL (≈ 356 µM)
Clostridium tetani
  MIC: > 250 µg/mL
Salmonella typhi
  MIC: 200 µg/mL (≈ 569 µM)
[1]
  inhibition of growth at 250 µg/mL: 72%
Vibrio cholerae
  MIC: 100 µg/mL (≈ 285 µM)

## CCCOC(=O)[C@H]1C[C@@H]2COc3ccc(/N=N/c4ccccc4)cc3[C@@H]2N1C
Aspergillus fumigatus
  MIC: > 250 µg/mL
Streptococcus pneumoniae
  MIC: 250 µg/mL (≈ 659 µM)
Candida albicans
  MIC: > 250 µg/mL
Escherichia coli
  MIC: 250 µg/mL (≈ 659 µM)
Bacillus subtilis
  MIC: 250 µg/mL (≈ 659 µM)
Clostridium tetani
  MIC: > 250 µg/mL
Salmonella typhi
  MIC: 250 µg/mL (≈ 659 µM)
[1]
  inhibition of growth at 250 µg/mL: 41%
Vibrio cholerae
  MIC: 250 µg/mL (≈ 659 µM)

## CCN1[C@@H](C(=O)OC)C[C@@H]2COc3ccc(/N=N/c4ccccc4)cc3[C@@H]21
Aspergillus fumigatus
  MIC: > 250 µg/mL
Streptococcus pneumoniae
  MIC: 200 µg/mL (≈ 547 µM)
Candida albicans
  MIC: > 250 µg/mL
Escherichia coli
  MIC: 200 µg/mL (≈ 547 µM)
Bacillus subtilis
  MIC: 200 µg/mL (≈ 547 µM)
Clostridium tetani
  MIC: > 250 µg/mL
Salmonella typhi
  MIC: > 250 µg/mL
[1]
  inhibition of growth at 250 µg/mL: 55%
Vibrio cholerae
  MIC: > 250 µg/mL

## O=C(O)c1cn(C2CC2)c2cc(N3CCNCC3)c(F)cc2c1=O [CIPROFLOXACIN]
Streptococcus pneumoniae
  MIC: 50 µg/mL (≈ 151 µM)
Escherichia coli
  MIC: 25 µg/mL (≈ 75.4 µM)
Salmonella typhi
  MIC: 25 µg/mL (≈ 75.4 µM)
Vibrio cholerae
  MIC: 25 µg/mL (≈ 75.4 µM)

## O=C(N[C@H](CO)[C@H](O)c1ccc([N+](=O)[O-])cc1)C(Cl)Cl [CHLORAMPHENICOL]
Streptococcus pneumoniae
  MIC: 50 µg/mL (≈ 155 µM)
Escherichia coli
  MIC: 50 µg/mL (≈ 155 µM)
Bacillus subtilis
  MIC: 50 µg/mL (≈ 155 µM)
Clostridium tetani
  MIC: 50 µg/mL (≈ 155 µM)
Salmonella typhi
  MIC: 50 µg/mL (≈ 155 µM)
Vibrio cholerae
  MIC: 50 µg/mL (≈ 155 µM)

## NYSTATIN
Aspergillus fumigatus
  MIC: 100 µg/mL
Candida albicans
  MIC: 100 µg/mL

## NNC(=O)c1ccncc1 [ISONIAZID]
[3]
  inhibition of growth at 0.2 µg/mL: 99%

## CCOC(=O)[C@H]1C[C@@H]2COc3ccc(/N=N/c4ccccc4)cc3[C@@H]2N1Cc1ccccc1
Aspergillus fumigatus
  MIC: > 250 µg/mL
Streptococcus pneumoniae
  MIC: 250 µg/mL (≈ 566 µM)
Candida albicans
  MIC: > 250 µg/mL
Escherichia coli
  MIC: > 250 µg/mL
Bacillus subtilis
  MIC: 250 µg/mL (≈ 566 µM)
Clostridium tetani
  MIC: 200 µg/mL (≈ 453 µM)
Salmonella typhi
  MIC: > 250 µg/mL
[1]
  inhibition of growth at 250 µg/mL: 20%
Vibrio cholerae
  MIC: 200 µg/mL (≈ 453 µM)

## CC1(C)S[C@@H]2[C@H](NC(=O)[C@H](N)c3ccccc3)C(=O)N2[C@H]1C(=O)O [AMPICILLIN]
Streptococcus pneumoniae
  MIC: 100 µg/mL (≈ 286 µM)
Escherichia coli
  MIC: 100 µg/mL (≈ 286 µM)
Bacillus subtilis
  MIC: 250 µg/mL (≈ 715 µM)
Clostridium tetani
  MIC: 250 µg/mL (≈ 715 µM)
Salmonella typhi
  MIC: 100 µg/mL (≈ 286 µM)
Vibrio cholerae
  MIC: 100 µg/mL (≈ 286 µM)

## CCCOC(=O)[C@H]1C[C@@H]2COc3ccc(/N=N/c4ccccc4)cc3[C@@H]2N1Cc1ccccc1
Aspergillus fumigatus
  MIC: > 250 µg/mL
Streptococcus pneumoniae
  MIC: 200 µg/mL (≈ 439 µM)
Candida albicans
  MIC: 250 µg/mL (≈ 549 µM)
Escherichia coli
  MIC: 250 µg/mL (≈ 549 µM)
Bacillus subtilis
  MIC: 250 µg/mL (≈ 549 µM)
Clostridium tetani
  MIC: 250 µg/mL (≈ 549 µM)
Salmonella typhi
  MIC: 250 µg/mL (≈ 549 µM)
[1]
  inhibition of growth at 250 µg/mL: 84%
Vibrio cholerae
  MIC: 100 µg/mL (≈ 220 µM)

## CCCOC(=O)[C@H]1C[C@@H]2COc3ccc(/N=N/c4ccccc4)cc3[C@@H]2N1CC
Aspergillus fumigatus
  MIC: > 250 µg/mL
Streptococcus pneumoniae
  MIC: > 250 µg/mL
Candida albicans
  MIC: > 250 µg/mL
Escherichia coli
  MIC: 50 µg/mL (≈ 127 µM)
Bacillus subtilis
  MIC: 200 µg/mL (≈ 508 µM)
Clostridium tetani
  MIC: 200 µg/mL (≈ 508 µM)
Salmonella typhi
  MIC: 100 µg/mL (≈ 254 µM)
[1]
  inhibition of growth at 250 µg/mL: 95%
Vibrio cholerae
  MIC: 100 µg/mL (≈ 254 µM)

## COC(=O)[C@H]1C[C@@H]2COc3ccc(/N=N/c4ccccc4)cc3[C@@H]2N1Cc1ccccc1
Aspergillus fumigatus
  MIC: > 250 µg/mL
Streptococcus pneumoniae
  MIC: 250 µg/mL (≈ 585 µM)
Candida albicans
  MIC: 200 µg/mL (≈ 468 µM)
Escherichia coli
  MIC: 125 µg/mL (≈ 292 µM)
Bacillus subtilis
  MIC: 250 µg/mL (≈ 585 µM)
Clostridium tetani
  MIC: 200 µg/mL (≈ 468 µM)
Salmonella typhi
  MIC: 250 µg/mL (≈ 585 µM)
[1]
  inhibition of growth at 250 µg/mL: 87%
Vibrio cholerae
  MIC: > 250 µg/mL
